# Measured values from ChEMBL document CHEMBL1201862, “PubChem BioAssay data set” (2004).
# The source made the active and inactive calls.
# Experiments:
# Aminopeptidase N = biological target: T1, Aminopeptidase N (Plasmodium falciparum FcB1/Columbia, UniProt O96935); assay: malaria alanyl aminopeptidase activity blockers – biochemical, fluorogenic H-Leu-NHMec substrate, 1536-well (AID 1445); set-up: species or system Plasmodium falciparum 3D7, 3D7
# T1 sequence (O96935 whole entry): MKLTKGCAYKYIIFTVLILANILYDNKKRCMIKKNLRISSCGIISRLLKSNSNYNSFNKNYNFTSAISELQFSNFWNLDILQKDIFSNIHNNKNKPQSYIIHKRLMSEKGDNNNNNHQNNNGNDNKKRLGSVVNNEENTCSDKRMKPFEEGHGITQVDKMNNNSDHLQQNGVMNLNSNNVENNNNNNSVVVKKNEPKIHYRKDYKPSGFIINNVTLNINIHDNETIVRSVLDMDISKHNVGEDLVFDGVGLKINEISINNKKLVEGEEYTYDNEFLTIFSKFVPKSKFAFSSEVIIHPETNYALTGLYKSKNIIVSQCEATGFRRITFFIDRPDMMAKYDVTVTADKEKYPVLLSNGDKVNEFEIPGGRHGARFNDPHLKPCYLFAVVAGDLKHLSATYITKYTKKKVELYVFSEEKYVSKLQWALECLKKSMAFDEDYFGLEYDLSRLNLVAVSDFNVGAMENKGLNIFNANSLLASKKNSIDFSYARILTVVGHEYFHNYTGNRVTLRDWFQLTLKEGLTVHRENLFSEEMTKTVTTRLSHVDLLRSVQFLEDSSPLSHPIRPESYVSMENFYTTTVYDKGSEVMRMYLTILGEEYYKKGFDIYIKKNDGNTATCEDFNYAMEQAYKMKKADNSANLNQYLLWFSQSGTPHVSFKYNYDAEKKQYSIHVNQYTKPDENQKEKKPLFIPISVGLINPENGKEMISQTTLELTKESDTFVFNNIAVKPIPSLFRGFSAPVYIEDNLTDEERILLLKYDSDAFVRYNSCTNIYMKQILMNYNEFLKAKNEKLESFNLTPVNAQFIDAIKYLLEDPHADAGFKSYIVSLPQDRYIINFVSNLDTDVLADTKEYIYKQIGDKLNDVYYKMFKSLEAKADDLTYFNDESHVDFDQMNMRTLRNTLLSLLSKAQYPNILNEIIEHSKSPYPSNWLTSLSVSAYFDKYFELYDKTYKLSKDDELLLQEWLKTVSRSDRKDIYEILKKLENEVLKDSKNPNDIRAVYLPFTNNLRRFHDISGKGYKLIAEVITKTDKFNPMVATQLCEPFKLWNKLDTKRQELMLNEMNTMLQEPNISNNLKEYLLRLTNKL
# [1] = THP-1 cell cytotoxicity, dose response, cytotoxicity control for non-replicating M. tuberculosis project (AID 489025); type: functional
# cells = type: functional
# Vero = assay: cells; type: functional; details: Chlorocebus sabaeus
# Cytochrome P450 2C19 = Cytochrome P450 2C19 (Homo sapiens, UniProt P33261); assay: Cytochrome panel assay with activity outcomes. Panel member name: p450-cyp2c19 Compounds with AC50 equal or less than 10 uM are considered active; type: functional; details: read-out: AC50
# Cytochrome P450 2C19, sequence (P33261 whole entry): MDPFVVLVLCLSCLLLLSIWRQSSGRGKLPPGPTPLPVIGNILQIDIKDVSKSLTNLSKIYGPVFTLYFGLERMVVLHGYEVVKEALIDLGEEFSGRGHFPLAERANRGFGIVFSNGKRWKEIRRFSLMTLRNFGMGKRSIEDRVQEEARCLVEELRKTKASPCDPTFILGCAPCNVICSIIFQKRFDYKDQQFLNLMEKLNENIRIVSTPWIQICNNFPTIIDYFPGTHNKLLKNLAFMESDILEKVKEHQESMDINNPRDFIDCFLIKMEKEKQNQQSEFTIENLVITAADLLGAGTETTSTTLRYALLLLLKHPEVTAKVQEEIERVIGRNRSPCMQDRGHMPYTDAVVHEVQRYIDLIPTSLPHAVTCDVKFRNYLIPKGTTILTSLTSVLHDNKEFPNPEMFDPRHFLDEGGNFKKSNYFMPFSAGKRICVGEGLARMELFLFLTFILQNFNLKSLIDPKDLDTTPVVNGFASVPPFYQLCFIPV
# Cytochrome P450 3A4 = Cytochrome P450 3A4 (Homo sapiens, UniProt P08684);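 further: CYP3A4 tested as one member of a cytochrome P450 panel screen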
# Cytochrome P450 3A4, sequence (P08684 whole entry): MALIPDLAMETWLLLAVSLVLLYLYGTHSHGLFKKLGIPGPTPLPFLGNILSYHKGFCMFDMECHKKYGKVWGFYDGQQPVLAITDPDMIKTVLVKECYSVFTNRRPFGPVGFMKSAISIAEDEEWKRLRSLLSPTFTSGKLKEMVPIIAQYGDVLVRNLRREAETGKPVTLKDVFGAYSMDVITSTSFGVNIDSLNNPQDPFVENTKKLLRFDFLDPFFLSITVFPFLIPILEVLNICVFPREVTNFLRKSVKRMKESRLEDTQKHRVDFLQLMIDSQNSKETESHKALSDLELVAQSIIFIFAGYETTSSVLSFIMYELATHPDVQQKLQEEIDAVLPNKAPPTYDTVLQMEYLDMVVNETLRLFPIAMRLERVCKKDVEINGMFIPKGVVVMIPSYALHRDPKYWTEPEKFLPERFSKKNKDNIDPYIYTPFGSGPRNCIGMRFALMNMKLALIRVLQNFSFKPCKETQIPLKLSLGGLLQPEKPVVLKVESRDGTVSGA
# [2] = biological target: T2, Heat shock factor protein 1 (Mus musculus, UniProt P38532); assay: decrease of HSF1-responsive luciferase luminescence – cell-based, NIH3T3, dose retest, confirmation (AID 2382); type: functional;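 further: NIH3T3 fibroblasts with HSF1-driven luciferase reporter stressed by proteasome inhibitor MG132; luminescence from HSF1-driven luciferase expression after 8 hours of MG132 stress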
# T2 sequence (P38532 whole entry): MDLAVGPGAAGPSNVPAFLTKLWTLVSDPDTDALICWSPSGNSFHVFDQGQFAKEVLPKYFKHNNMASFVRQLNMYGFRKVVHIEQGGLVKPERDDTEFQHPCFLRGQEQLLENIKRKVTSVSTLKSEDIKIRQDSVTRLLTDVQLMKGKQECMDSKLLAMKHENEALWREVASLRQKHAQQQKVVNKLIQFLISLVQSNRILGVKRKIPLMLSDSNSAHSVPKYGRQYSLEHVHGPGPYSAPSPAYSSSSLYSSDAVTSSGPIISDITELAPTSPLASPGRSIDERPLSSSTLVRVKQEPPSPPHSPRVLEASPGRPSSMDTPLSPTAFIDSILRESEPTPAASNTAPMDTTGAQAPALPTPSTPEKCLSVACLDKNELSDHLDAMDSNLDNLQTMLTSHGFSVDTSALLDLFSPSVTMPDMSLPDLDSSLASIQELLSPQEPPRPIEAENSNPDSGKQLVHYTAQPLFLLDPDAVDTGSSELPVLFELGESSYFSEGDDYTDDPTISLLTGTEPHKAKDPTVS
# Prothrombin = Prothrombin (Homo sapiens, UniProt P00734); assay: Thrombin 1536 HTS Dose Response Confirmation. [Related pubchem assays: 1046 (Thrombin 1536 HTS; hits were confirmed in this assay)]; type: functional
# Cytochrome P450 1A2 = biological target: T3, Cytochrome P450 1A2 (Homo sapiens, UniProt P05177);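 further: PubChem cytochrome P450 panel assay, CYP1A2 panel member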
# T3 sequence (P05177 whole entry): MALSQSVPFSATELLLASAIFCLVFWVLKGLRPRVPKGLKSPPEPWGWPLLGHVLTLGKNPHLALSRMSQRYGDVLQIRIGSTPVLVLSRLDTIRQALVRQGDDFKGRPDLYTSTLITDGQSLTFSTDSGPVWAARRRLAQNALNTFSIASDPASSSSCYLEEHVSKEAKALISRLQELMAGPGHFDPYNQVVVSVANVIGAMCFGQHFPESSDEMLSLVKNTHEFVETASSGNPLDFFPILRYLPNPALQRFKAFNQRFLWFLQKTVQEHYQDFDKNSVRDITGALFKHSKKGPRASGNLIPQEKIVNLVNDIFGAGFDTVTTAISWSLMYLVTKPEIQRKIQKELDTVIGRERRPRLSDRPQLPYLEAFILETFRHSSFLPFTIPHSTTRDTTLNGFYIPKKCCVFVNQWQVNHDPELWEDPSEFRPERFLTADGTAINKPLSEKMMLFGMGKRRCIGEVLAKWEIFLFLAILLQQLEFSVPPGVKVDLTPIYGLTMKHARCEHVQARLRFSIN
# Cytochrome P450 2C9 = Cytochrome P450 2C9 (Homo sapiens, UniProt P11712)
# Cytochrome P450 2C9, sequence (P11712 whole entry): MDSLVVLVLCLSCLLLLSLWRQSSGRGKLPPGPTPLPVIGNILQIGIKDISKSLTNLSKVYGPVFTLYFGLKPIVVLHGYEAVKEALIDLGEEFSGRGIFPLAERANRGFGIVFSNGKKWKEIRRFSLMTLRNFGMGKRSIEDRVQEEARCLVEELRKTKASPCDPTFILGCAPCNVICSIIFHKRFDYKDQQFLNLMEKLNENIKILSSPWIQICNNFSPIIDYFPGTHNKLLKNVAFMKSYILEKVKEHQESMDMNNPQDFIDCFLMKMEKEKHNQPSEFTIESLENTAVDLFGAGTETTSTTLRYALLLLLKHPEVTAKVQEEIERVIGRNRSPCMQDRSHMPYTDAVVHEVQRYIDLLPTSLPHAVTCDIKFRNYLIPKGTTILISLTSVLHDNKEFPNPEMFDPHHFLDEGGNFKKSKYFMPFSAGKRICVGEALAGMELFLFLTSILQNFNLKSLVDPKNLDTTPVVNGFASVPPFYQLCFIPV
# [3] = biological target: T4, Short transient receptor potential channel 4 (Mus musculus, UniProt Q9QUQ5); assay: calcium entry via TRPC4 opening agents – cell-based, HEK293 TRPC4/mu-opioid, Fluo-4 calcium, dose response (AID 434937); type: functional
# T4 sequence (Q9QUQ5 whole entry): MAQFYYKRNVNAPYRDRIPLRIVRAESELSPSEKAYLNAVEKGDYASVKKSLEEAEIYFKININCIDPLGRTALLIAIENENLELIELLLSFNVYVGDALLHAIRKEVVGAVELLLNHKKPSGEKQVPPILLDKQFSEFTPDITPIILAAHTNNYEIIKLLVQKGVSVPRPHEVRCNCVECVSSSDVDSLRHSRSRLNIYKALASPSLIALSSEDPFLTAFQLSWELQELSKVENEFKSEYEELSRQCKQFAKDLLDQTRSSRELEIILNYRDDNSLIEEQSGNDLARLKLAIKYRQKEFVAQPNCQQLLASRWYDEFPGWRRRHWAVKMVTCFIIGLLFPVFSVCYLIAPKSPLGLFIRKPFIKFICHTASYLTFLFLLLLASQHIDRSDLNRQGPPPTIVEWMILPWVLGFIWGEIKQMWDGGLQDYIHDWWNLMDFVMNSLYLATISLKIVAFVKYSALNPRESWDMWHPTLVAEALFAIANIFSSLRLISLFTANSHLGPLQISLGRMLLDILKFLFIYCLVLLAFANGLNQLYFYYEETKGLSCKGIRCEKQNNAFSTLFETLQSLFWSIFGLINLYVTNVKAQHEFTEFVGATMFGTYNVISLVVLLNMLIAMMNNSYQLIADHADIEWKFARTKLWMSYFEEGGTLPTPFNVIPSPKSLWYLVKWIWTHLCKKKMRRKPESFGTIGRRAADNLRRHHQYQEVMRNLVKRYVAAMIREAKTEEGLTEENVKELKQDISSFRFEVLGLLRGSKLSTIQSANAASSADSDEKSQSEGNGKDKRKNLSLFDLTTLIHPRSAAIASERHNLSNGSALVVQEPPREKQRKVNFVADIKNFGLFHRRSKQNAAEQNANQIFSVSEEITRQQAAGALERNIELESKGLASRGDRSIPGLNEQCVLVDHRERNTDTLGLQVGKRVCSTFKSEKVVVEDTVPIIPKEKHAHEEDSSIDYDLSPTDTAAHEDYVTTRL
# Cytochrome P450 2D6 = Cytochrome P450 2D6 (Homo sapiens, UniProt P10635);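 further: CYP2D6 member of a cytochrome P450 panel assay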
# Cytochrome P450 2D6, sequence (P10635 whole entry): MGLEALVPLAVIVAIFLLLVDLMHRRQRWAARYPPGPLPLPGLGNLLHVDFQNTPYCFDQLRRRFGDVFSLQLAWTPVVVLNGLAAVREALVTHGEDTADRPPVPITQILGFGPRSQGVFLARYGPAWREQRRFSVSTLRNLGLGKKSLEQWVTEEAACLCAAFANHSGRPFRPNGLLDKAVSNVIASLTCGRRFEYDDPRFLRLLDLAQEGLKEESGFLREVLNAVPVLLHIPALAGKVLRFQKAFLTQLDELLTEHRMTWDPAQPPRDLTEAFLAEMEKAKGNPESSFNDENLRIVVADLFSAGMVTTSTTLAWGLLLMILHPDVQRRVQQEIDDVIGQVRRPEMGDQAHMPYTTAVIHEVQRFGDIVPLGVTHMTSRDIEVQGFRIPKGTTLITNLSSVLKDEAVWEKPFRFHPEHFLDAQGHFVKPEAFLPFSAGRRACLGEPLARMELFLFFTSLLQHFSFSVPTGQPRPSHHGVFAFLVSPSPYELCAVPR
# [4] = NIH-3T3 fibroblast cytotoxicity, dose response, cytotoxicity control, cell-based, fluorescence, Alamar Blue, secondary assay (AID 2327); type: functional;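 further: NIH-3T3 mouse fibroblasts cultured with fluconazole at 8 µg/mL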
# [5] = fluconazole-exposed Candida albicans growth modulators – fluorescence, retest, confirmation (AID 2467); type: functional, cell-based
# [6] = microbe, parasite or virus in culture; type: functional; details: Mycobacterium tuberculosis
# [7] = biological target: Heat shock protein HSP 90-alpha (Homo sapiens, UniProt P07900); type: functional, organism-based
# [8] = reduction of Shn3 3'UTR-driven luciferase in osteoblasts – cell-based, Clone20 osteoblasts, firefly luciferase, cherry-picked, dose response (AID 624132); type: functional;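 further: firefly luciferase luminescence from reporter carrying the Shn3 3'UTR in osteoblasts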
# [9] = loss of viability in HepG2 cells – cell-based, CellTiter-Glo, cherry-picked, cytotoxicity control for Shn3 inhibitor project, dose response (AID 624134); type: functional
# [10] = non-specific 3'UTR reporter inhibition in Clone20-Shn3RL – cell-based, Renilla luciferase, cherry-picked, counter-screen for Shn3 inhibitor project, dose response (AID 624133); type: functional
# [11] = biological target: T5, Rac GTPase-activating protein 1 (Homo sapiens, UniProt Q9H0H5); assay: blockers of MgcRacGAP-driven Rac1 GTP hydrolysis – biochemical, ADP Hunter fluorescence, primary and confirmatory, confirmation (AID 624330); type: functional
# T5 sequence (Q9H0H5 whole entry): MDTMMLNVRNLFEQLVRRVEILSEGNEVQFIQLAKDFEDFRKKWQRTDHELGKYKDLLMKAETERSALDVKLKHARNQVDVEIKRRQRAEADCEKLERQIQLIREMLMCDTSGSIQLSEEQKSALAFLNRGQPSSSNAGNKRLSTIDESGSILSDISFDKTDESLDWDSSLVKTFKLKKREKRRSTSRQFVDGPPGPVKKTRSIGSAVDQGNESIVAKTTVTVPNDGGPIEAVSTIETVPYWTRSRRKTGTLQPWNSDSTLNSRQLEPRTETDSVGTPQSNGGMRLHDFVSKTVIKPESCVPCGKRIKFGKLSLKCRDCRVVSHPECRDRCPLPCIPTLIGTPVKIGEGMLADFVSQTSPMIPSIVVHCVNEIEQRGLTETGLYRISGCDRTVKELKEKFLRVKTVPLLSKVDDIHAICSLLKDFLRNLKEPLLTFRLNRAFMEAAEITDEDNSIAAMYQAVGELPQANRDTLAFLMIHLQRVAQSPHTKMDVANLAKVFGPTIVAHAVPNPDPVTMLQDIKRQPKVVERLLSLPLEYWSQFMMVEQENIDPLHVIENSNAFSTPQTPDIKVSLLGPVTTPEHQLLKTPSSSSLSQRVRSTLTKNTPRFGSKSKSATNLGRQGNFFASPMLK
structure (smiles),measurement,setting,value
Cc1ccc(OCC(=O)N2CCN(C(=O)CCC3CCCC3)CC2)cc1,IC50,Aminopeptidase N,57.3 µM (active)
Clc1ccc(OCCCNCc2ccccc2)c2ccccc12,CC50,[1],23.6 µM (active)
same,IC50,cells,12.2 µM (active)
same,CC50,Vero,> 25 µM (active)
CN(C)CCNc1nc(S(=O)(=O)c2ccccc2)c(Cl)s1,IC50,Aminopeptidase N,51.9 µM (active)
COC(=O)N1CCC2(CC1)CCN(c1ccccc1)CC2,AC50,Cytochrome P450 2C19,5.01 µM (inconclusive)
same,AC50,Cytochrome P450 3A4,inconclusive
CCN(CC)S(=O)(=O)c1ccc2c(c1)c(=O)c(C(=O)NCc1ccco1)cn2C,EC50,[2],> 195 µM (not active)
same,IC50,Prothrombin,2.14 µM (active)
Clc1ccc(Cl)c(OCCCCNCc2ccccc2)c1,CC50,[1],38.1 µM (active)
same,IC50,cells,36.9 µM (active)
Cn1cccc1C(=O)N1CCC2(CC1)CN(C(c1ccccc1)c1ccccc1)C2,AC50,Cytochrome P450 1A2,31.6 µM (inconclusive)
same,AC50,Cytochrome P450 2C9,39.8 µM (inconclusive)
same,AC50,Cytochrome P450 3A4,inconclusive
O=C(O)/C(=C\c1ccccc1)Cc1ccccc1,AC50,Cytochrome P450 2C9,3.98 µM (inconclusive)
same,AC50,Cytochrome P450 3A4,inconclusive
COC(=O)c1ccc(N2CCN(C)CC2)c(NC(=O)c2cccs2)c1,EC50,[3],2.11 µM (active)
Cc1ccc(/C=C2\SC(=S)N(C3CCS(=O)(=O)C3)C2=O)o1 (centres undefined),CC50,[1],> 40 µM (active)
COCC(=O)N1CCC2(CC1)CCN(C(c1ccccc1)c1ccccc1)CC2,AC50,Cytochrome P450 3A4,inconclusive
O=C(c1ccco1)N1CCC2(CC1)CN(c1ccccn1)C2,AC50,Cytochrome P450 2D6,15.8 µM (inconclusive)
same,AC50,Cytochrome P450 3A4,inconclusive
O=C(Oc1ccccc1)N1CCC2(CC1)CN(c1ccccn1)C2,AC50,Cytochrome P450 3A4,inconclusive
CC(C)(C)C(=O)NC(=S)NNC(=O)c1sc2ccccc2c1Cl,EC50,[4],2.54 µM (inconclusive)
same,EC50,[2],3.06 µM (active)
same,EC50,[5],1.35 µM (active)
same,CC50,[6],6.74 µM (active)
same,EC50,[3],0.267 µM (active)
same,AC50,[7],3.26 µM (active)
same,AC50,[8],19.1 µM (active)
same,AC50,[9],12.1 µM (active)
same,AC50,[10],1.54 µM (active)
CCN1CCN(c2c(Cl)cccc2NC(=O)c2ccc3nsnc3c2)CC1,EC50,[3],0.668 µM (active)
Oc1ccc(Cl)cc1/N=C/c1c[nH]nc1O,IC50,Aminopeptidase N,14.3 µM (active)
same,IC50,[11],30 µM (active)
